Experimental data taken from article PMC6199744, “Development of Chemical Proteomics for the Folateome and Analysis of the Kinetoplastid Folateome” (ACS Infectious Diseases, 2018).
Like-named read-outs stand apart in the source and are kept apart here.

Tests used:
Format in all cases: binding
[1] = target: T1, HeLa cell extract proteins (Homo sapiens, UniProt O43819)
T1 construct: endogenous in cells; host or cells: HeLa cell extract
T1 sequence (O43819 42-266): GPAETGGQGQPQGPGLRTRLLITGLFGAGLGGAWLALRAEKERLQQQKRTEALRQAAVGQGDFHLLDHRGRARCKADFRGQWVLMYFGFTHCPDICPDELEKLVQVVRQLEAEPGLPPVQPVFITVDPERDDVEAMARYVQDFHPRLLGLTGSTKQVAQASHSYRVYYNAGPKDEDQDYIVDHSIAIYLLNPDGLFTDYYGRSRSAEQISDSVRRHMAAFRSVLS

[2] = target: T2, HeLa cell extract proteins (Homo sapiens, UniProt Q9UPT8)
T2 construct: endogenous in cells; host or cells: HeLa cell extract

[3] = target: T3, HeLa cell extract proteins (Homo sapiens, UniProt P52565)
T3 construct: endogenous in cells; host or cells: HeLa cell extract
T3 sequence (P52565 1-204): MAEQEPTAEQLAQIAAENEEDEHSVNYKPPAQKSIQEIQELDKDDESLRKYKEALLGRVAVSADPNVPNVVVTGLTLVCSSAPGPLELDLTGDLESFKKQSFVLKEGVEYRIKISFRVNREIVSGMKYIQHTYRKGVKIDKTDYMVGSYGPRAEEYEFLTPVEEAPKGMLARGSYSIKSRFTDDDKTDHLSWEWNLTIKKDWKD

[4] = target: T4, HeLa cell extract proteins (Homo sapiens, UniProt Q15393)
T4 construct: endogenous in cells; host or cells: HeLa cell extract

[5] = target: T5, HeLa cell extract proteins (Homo sapiens, UniProt O00505)
T5 construct: endogenous in cells; host or cells: HeLa cell extract
T5 sequence (O00505 1-521): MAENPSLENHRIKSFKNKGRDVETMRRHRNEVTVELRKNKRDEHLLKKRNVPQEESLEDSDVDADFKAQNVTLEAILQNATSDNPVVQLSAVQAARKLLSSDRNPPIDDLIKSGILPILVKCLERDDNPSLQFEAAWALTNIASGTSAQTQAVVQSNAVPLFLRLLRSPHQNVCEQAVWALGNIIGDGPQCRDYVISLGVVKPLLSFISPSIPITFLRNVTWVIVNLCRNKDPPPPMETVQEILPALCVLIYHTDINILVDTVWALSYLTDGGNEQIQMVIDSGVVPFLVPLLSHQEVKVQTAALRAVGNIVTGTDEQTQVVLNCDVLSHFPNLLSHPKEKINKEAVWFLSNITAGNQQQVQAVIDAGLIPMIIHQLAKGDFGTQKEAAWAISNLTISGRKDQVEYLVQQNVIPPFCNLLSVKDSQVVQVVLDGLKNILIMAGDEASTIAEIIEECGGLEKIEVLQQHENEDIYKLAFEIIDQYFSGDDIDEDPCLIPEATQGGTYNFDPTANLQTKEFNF

[6] = target: T6, HeLa cell extract proteins (Homo sapiens, UniProt Q9UJ70); details: captured protein NAGK; HeLa
T6 construct: endogenous in cells; host or cells: HeLa cell extract

[7] = target: T7, HeLa cell extract proteins (Homo sapiens, UniProt Q8WUK0); details: captured protein PTPMT1; HeLa
T7 construct: endogenous in cells; host or cells: HeLa cell extract
T7 sequence (Q8WUK0 28-201): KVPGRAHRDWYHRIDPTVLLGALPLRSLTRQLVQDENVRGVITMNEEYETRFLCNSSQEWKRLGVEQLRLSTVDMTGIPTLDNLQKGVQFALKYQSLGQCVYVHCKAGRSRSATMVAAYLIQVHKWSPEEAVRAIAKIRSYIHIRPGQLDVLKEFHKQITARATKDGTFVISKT

[8] = target: T8, HeLa cell extract proteins (Homo sapiens, UniProt P14866); details: protein HNRNPL; HeLa
T8 construct: endogenous in cells; host or cells: HeLa cell extract
T8 sequence (P14866 1-589): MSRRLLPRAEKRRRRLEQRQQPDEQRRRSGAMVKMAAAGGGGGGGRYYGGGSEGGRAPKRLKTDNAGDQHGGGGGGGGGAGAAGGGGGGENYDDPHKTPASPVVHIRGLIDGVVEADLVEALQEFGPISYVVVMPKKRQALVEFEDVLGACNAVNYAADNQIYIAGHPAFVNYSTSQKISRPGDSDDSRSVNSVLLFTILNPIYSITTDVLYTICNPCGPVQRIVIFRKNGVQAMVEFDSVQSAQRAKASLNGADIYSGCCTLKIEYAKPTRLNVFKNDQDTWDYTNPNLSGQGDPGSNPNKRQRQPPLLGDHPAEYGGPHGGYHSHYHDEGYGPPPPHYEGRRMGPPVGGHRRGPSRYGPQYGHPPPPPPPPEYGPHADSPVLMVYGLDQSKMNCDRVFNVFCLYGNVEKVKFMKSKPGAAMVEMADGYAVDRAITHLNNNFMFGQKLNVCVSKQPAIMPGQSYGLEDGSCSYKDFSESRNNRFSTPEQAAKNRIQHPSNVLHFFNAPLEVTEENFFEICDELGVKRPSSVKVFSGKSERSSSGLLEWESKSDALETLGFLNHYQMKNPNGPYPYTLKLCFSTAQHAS

[9] = target: T9, HeLa cell extract proteins (Homo sapiens, UniProt P48729); details: protein CSNK1A1; HeLa
T9 construct: endogenous in cells; host or cells: HeLa cell extract

[10] = target: T10, HeLa cell extract proteins (Homo sapiens, UniProt Q9UBB4); details: protein Ataxin-10; HeLa
T10 construct: endogenous in cells; host or cells: HeLa cell extract
T10 sequence (Q9UBB4 1-475): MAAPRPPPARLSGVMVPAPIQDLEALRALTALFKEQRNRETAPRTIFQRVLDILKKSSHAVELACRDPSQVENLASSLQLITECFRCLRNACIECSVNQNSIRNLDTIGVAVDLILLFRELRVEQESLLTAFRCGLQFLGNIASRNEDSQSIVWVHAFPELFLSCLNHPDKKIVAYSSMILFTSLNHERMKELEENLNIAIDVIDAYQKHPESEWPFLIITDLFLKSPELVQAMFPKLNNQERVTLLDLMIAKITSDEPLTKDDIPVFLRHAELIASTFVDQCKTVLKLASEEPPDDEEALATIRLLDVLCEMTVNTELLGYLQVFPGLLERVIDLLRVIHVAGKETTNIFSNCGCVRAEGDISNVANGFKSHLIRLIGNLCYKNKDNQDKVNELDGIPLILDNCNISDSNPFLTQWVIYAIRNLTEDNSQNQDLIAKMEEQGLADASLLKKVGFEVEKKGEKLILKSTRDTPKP

[11] = target: T11, HeLa cell extract proteins (Homo sapiens, UniProt Q13501); details: HeLa; protein SQSTM1
T11 construct: endogenous in cells; host or cells: HeLa cell extract
T11 sequence (Q13501 whole entry): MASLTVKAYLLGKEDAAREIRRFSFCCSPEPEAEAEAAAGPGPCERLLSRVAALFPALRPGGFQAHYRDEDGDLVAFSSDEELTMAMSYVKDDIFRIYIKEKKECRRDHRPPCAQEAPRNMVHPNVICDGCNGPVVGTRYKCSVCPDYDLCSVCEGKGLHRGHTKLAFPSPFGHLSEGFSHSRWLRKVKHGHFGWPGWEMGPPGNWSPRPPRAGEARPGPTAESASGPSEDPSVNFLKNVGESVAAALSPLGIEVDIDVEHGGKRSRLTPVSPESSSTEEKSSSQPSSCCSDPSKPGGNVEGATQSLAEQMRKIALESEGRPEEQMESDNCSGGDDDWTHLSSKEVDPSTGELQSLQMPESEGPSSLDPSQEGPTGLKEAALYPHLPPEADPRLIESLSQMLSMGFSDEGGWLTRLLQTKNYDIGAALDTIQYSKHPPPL

T6 sequence (Q9UJ70 whole entry): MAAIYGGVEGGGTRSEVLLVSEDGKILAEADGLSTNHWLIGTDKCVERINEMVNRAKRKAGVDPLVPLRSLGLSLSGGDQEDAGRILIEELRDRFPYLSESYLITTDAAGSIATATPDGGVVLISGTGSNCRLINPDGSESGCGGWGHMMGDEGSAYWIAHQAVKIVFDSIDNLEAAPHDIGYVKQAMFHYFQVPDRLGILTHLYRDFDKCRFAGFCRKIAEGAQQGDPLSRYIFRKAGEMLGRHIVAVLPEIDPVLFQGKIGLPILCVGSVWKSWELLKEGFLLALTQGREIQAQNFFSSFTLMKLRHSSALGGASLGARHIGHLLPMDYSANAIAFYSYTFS
T2 sequence (Q9UPT8 whole entry): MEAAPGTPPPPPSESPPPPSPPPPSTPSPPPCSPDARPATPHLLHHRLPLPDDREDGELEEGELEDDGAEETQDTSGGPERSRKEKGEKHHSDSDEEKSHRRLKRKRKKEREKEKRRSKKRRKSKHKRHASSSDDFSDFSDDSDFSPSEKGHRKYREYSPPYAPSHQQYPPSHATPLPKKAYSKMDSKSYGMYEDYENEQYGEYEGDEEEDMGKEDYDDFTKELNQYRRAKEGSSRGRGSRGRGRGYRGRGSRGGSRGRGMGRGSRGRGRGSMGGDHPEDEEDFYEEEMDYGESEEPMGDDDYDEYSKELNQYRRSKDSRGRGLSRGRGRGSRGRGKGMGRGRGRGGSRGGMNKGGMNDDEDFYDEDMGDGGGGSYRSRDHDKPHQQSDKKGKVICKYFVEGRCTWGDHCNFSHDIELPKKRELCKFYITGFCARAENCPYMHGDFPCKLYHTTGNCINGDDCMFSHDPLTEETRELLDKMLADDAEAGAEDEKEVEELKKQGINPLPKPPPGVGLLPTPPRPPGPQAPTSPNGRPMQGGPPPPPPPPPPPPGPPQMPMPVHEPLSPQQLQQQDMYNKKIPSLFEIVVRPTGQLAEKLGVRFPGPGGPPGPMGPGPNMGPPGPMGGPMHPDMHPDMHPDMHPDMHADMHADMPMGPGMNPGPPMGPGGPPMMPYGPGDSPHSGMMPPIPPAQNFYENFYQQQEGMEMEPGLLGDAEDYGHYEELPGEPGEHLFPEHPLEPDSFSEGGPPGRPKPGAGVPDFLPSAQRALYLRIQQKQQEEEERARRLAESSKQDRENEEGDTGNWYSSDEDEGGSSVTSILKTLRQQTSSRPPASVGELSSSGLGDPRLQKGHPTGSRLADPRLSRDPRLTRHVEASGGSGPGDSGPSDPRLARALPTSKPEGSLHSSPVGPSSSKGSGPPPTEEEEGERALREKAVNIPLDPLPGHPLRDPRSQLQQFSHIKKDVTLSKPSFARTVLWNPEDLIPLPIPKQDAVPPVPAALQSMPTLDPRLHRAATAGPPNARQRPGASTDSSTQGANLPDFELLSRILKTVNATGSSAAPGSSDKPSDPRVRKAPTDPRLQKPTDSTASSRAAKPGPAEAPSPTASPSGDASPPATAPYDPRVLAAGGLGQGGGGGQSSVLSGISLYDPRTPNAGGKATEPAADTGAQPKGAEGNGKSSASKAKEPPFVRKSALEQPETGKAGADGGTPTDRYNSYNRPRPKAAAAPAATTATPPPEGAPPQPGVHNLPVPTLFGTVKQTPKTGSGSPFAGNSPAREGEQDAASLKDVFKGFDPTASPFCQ
T4 sequence (Q15393 whole entry): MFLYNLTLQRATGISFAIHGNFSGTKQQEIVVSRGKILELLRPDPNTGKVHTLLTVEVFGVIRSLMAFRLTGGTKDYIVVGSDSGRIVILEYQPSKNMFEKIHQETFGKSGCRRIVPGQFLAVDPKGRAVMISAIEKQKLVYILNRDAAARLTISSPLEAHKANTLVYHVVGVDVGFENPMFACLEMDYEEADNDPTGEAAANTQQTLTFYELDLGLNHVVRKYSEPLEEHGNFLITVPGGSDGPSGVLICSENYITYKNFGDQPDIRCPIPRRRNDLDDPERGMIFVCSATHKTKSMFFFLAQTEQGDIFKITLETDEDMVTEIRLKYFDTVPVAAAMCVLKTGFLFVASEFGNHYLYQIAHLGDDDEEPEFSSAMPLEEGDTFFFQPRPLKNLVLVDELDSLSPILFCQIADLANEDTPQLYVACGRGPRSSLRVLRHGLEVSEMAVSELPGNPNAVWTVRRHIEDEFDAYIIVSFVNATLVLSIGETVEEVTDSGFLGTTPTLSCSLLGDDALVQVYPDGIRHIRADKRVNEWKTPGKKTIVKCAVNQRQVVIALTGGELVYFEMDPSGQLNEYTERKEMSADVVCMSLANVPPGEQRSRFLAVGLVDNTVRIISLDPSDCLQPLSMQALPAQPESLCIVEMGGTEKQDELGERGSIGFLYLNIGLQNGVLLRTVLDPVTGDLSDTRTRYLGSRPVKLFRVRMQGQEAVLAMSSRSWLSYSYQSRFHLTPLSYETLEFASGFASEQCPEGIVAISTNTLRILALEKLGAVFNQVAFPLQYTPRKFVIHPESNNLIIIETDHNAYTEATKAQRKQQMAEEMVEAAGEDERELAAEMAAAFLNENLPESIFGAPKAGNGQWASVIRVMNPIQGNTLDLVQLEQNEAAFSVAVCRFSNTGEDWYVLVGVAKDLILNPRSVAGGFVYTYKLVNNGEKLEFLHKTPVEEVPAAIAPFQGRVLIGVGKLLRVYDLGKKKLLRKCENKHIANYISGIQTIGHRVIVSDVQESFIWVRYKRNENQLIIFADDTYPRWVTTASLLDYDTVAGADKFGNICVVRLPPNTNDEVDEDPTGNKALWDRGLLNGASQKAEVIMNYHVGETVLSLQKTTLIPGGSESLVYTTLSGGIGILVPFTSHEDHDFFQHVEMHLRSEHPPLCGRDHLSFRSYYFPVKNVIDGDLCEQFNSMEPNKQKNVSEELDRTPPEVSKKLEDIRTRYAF
T9 sequence (P48729 whole entry): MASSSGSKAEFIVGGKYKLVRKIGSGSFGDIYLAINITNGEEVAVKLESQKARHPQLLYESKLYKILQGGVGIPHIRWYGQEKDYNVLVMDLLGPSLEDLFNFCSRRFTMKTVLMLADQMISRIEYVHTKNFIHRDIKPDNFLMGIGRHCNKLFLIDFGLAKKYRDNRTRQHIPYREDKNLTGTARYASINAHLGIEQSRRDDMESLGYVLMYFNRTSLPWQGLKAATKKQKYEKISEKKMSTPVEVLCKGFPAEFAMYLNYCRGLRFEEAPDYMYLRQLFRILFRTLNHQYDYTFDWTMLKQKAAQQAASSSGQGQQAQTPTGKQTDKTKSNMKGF

Compound | fold changes relative to vehicle control ([1]; HeLa, protein SCO2) | fold changes relative to vehicle control ([2]; HeLa, protein ZC3H4) | fold changes relative to vehicle control ([3]; HeLa, protein ARHGDIA) | fold changes relative to vehicle control ([4]; HeLa, protein SF3B3) | fold changes relative to vehicle control ([5]; HeLa, captured protein KPNA3) | fold changes relative to vehicle control [6] | fold changes relative to vehicle control [7] | fold changes relative to vehicle control [8] | fold changes relative to vehicle control [9] | fold changes relative to vehicle control [10] | fold changes relative to vehicle control [11] | other results
Nc1nc2c(c(=O)[nH]1)N(C=O)C(CNc1ccc(C(=O)N[C@@H](CCC(=O)O)C(=O)O)cc1)CN2 (some centres unmarked) [LEU, leucovorin] | 0.95 | 0.99 | 1.03 | 1.09 | 0.9 |  |  |  |  |  |  | 
Nc1nc2[nH]cc(CCc3ccc(C(=O)N[C@@H](CCC(=O)O)C(=O)O)cc3)c2c(=O)[nH]1 [PTX, pemetrexed] |  |  |  |  |  |  |  |  |  |  |  | fold changes relative to vehicle control [1]: 0.95; fold changes relative to vehicle control [2]: 1.06; fold changes relative to vehicle control [3]: 1.08; fold changes relative to vehicle control [4]: 1.16; fold changes relative to vehicle control [5]: 0.9
CCCCCCOc1ccc(Cc2cnc(N)nc2N)cc1 [compound 1] |  |  |  |  |  | 0.83 | 0.88 | 1 | 0.93 | 1.14 | 1.3 | 
CCCCCCOc1cccc(Cc2cnc(N)nc2N)c1 [compound 2] |  |  |  |  |  | 1.2 | 0.91 | 1.02 | 1.17 | 1.4 | 0.96 | 
Nc1nc2cccc(-c3ccccc3)c2n1Cc1ccc(Cl)c(Cl)c1 [compound 3] |  |  |  |  |  | 0.77 | 0.93 | 0.88 | 1.06 | 1.04 | 1.2 | 
NCCOCCOCC(=O)Nc1nc2ncc(CNc3ccc(C(=O)NC(CCC(=O)O)C(=O)O)cc3)nc2c(=O)[nH]1 (centres unmarked) [compound 6] | 1.02 | 1.1 | 1.18 | 1.18 | 1.02 |  |  |  |  |  |  | 
NCCCNc1ccc(C(=O)NC(CCC(=O)O)C(=O)O)cc1 (centres unmarked) [compound 7] | 1.03 | 1.01 | 1.08 | 1.19 | 0.87 |  |  |  |  |  |  | 
